The target in one test is Bub1 (Homo sapiens, UniProt O43683). The experiment in a line: Formation-Assay: phosphorylation status of histone 2A by inhibition of kinase activity of Bub1. The test is classed as cell-based. As to conditions: 16 h. Here is the method: Biological Assay 4.1: Formation-Assay
Cell-Based Mechanistic Assay: Changes of Phosphorylation Status of Histone 2A by Inhibition of Kinase Activity of Bub1
This assay determines the suppression of histone 2A phosphorylation by a Bub1 kinase inhibitor during co-treatment with Nocodazole. 25000 cells (cells were ordered from ATCC) were seeded in 96 well plate for 5 h at 37° C. Cells were treated with Nocodazole (1 μg/ml) and varying concentrations (between 3 nM and 10 μM) of test compounds for 16 h. Cells were fixed (20 min, Fixing solution R&D), washed three times with PBS and blocked with Odyssey blocking buffer before incubating with the primary antibody against phosphorylated H2A (5 μg/ml ABIN482721) overnight at 2-8° C. After washing, secondary IRDye-labeled antibody mix with cell stains was added for 1 h and washed again with PBS. Plates were scanned with LiCor Odyssey Infrared Imager CLx at 800 nm for P-H2A and at 700 nm for cell stains Draq5/Sapphire. The quotient of 800 nm and 700 nm for Nocodazole only treated cells was set as 100% and the quotient of 800 nm and 700 nm of untreated cells was set as 0%.
Histone H2A is an immediate intracellular substrate of Bub1 kinase. Determination of the phosphorylation status of Histone H2A provides a direct measure of the intracellular activity of Bub1 kinase.

In test [1] the target is T1, catalytic domain of human Bub1 (amino acids 704-1085) (Homo sapiens, UniProt O43683).
T1 construct: catalytic domain of human Bub1 (amino acids 704-1085); His6 (N); made in house; host or cells: Hi5 insect cells
The experiment in a line: Bub1 kinase assay (TR-FRET). The test is classed as biochemical. The gist of the method:
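TR-FRET read-out (Eu-anti-mouse IgG/anti-phosphoserine antibody to streptavidin-XL665 on biotinylated peptide) after EDTA stop and 1 h complex formation at 22° C. Kinase reaction ran 60 min at 22° C with 1:3.4 serial dilutions from 2 mM DMSO stocks. IC50 from 4-parameter logistic fit of normalized inhibition.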

The test system of test [2] is HeLa human cervical tumor cells. Kind of test: Proliferation assay (HeLa+Paclitaxel).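 Also: compounds at 0.001-10 µM added 4 h after paclitaxel, 92 h exposure, absorbance normalized to zero-point plate (0%) and untreated cells (100%), IC50 from 4-parameter fit.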 As to conditions: read-out: Biological Assay 3: HeLa + Paclitaxel IC50, 3 nM paclitaxel, crystal violet.
A further test relates to HeLa. Kind of test: Proliferation assay (HeLa cell line).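 Also: crystal violet staining of cell number, scaled between a plate stained before dosing (0%) and cells left untreated (100%), compounds tested at 0.001-10 µM, IC50 via 4-parameter fit.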
[3] abbreviates: Biological Assay 4.1: H2A Formation IC50, co-treatment with Nocodazole 1 μg/ml.
The mark [4] stands for this setting: Biological Assay 1: Bub1 kinase assay median IC50, 10 μM ATP.
[5] abbreviates: Homo sapiens, 96 h, read-out: Biological Assay 2: Proliferation assay (HeLa cell line) median IC50.
Where [6] appears, read: 10 μM ATP, read-out: Biological Assay 1: Bub1 kinase assay median IC50.
The mark [7] stands for this setting: read-out: Biological Assay 2: Proliferation assay (HeLa cell line) median IC50, 4 days, crystal violet.

Where “and” joins values, the source holds several entries; their conditions need not be identical. Equal values may be shown once. Where a name gives a salt, the structure may show the parent alone. Read-outs that look alike come from different tables or passages of the source.

T1 sequence (O43683 704-1085): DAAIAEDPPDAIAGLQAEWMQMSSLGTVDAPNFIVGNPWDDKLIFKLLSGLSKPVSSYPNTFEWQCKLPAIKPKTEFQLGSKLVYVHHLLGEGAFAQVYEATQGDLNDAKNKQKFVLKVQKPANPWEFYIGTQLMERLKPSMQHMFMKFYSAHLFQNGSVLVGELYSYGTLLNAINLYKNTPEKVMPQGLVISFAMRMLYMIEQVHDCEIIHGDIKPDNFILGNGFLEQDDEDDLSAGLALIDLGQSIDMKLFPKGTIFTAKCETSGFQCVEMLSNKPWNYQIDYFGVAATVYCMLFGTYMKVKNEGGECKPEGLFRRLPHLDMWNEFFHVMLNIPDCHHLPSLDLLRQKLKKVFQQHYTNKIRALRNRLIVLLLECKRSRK
Sequence of Bub1 (O43683 whole entry): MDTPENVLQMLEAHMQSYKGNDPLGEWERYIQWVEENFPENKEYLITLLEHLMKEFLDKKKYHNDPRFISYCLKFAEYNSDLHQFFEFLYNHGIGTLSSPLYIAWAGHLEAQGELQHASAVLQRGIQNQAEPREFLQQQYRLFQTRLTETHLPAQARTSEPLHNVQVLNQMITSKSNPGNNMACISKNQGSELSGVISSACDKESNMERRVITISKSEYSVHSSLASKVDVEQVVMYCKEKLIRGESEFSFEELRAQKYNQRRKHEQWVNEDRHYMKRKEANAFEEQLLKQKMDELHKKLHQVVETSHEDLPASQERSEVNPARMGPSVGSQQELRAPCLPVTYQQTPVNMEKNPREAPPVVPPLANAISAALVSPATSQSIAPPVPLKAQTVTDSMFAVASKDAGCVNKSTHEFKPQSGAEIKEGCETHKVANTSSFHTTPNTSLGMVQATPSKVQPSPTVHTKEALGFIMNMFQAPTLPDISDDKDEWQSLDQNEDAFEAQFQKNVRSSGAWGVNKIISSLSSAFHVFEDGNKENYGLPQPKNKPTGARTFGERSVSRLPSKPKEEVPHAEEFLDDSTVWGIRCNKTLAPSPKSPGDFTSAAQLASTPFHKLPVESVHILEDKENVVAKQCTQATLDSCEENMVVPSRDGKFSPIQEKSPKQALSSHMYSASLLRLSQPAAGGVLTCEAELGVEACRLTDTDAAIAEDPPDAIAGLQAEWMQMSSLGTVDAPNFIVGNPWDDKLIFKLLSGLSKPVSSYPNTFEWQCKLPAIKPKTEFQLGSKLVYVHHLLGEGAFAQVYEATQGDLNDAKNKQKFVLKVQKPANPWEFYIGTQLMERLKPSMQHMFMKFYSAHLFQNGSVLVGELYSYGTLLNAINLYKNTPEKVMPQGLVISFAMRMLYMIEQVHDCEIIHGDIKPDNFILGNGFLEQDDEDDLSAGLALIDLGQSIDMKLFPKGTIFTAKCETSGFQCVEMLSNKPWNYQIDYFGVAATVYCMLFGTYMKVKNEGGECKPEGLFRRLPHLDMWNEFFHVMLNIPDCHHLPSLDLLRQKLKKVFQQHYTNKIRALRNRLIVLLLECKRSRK

For the molecule `CCOc1cc(F)c(Cn2nc(-c3ncc(CN4CC(F)(F)C4)c(Nc4ccncc4)n3)c3ccccc32)c(F)c1` [Example 2-2-19, 5-[(3,3-difluoroazetidin-1-yl)methyl]-2-[1-(4-ethoxy-2,6-difluorobenzyl)-1H-indazol-3-yl]-N-(pyridin-4-yl)pyrimidin-4-amine], the IC50 on Bub1 (setting [3]) came to 1800 nM; in test [1] (setting [4]), 28 nM; in test [2], 630 nM; in the test with HeLa (setting [5]), 5400 nM.

On to `CS(=O)(=O)CCCc1cnc(-c2nn(Cc3c(F)cc(OCCO)cc3F)c3ccccc23)nc1Nc1ccncc1` [Example 2-4-2, 2-{3,5-difluoro-4-[(3-{5-[3-(methylsulfonyl)propyl]-4-(pyridin-4-ylamino)pyrimidin-2-yl}-1H-indazol-1-yl)methyl]phenoxy}ethanol], for which the IC50 was 70 nM on Bub1 (setting [3]), 15 nM in test [1] (setting [4]), 3900 nM in test [2] and more than 10000 nM in the test on HeLa (setting [5]).

On to `CCOc1cc(F)c(Cn2nc(-c3ncc(CCCOC)c(Nc4ccncc4C(N)=O)n3)c3ccccc32)c(F)c1` [Example 2-10-1, 4-({2-[1-(4-ethoxy-2,6-difluorobenzyl)-1H-indazol-3-yl]-5-(3-methoxypropyl)pyrimidin-4-yl}amino)nicotinamide], for which the IC50 on Bub1 (setting [3]) is 3400 nM; in test [1] (setting [4]), 11 nM; in test [2], 1300 nM; with HeLa (setting [5]) it was more than 10000 nM.

Regarding `CCOc1cc(F)c(Cn2nc(-c3ncc(CN)c(Nc4ccnc(C(F)F)c4)n3)c3ccccc32)c(F)c1` [Example 2-9-6, 5-(aminomethyl)-N-[2-(difluoro-methyl)pyridin-4-yl]-2-[1-(4-ethoxy-2,6-difluorobenzyl)-1H-indazol-3-yl]pyrimidin-4-amine, salt with hydrochloric acid], the IC50 at Bub1 (setting [3]) was determined as 2.9 nM; in test [1] (setting [6]) it was 90 nM; in test [2], 260 nM; in the test on HeLa (setting [5]), 3700 nM.

Regarding `CCOc1cc(F)c(Cn2nc(-c3nc(CO)cc(Nc4ccncc4C)n3)c3ccccc32)c(F)c1` [Example 2-6-4, {2-[1-(4-ethoxy-2,6-difluorobenzyl)-1H-indazol-3-yl]-6-[(3-methylpyridin-4-yl)amino]pyrimidin-4-yl}methanol], the IC50 on Bub1 (setting [3]) turned out to be 52 nM; in test [1] (setting [6]), 9.1 nM; in test [2], 170 nM; in the test on HeLa (setting [5]), 1400 nM.

Take `CCOc1cc(F)c(Cn2nc(-c3nc4c(c(Nc5ccnc(OC)c5)n3)CCC4)c3ccccc32)c(F)c1` [Example 2-19-7, 2-[1-(4-ethoxy-2,6-difluorobenzyl)-1H-indazol-3-yl]-N-(2-methoxypyridin-4-yl)-6,7-dihydro-5H-cyclopenta[d]pyrimidin-4-amine]: the IC50 on Bub1 (setting [3]) was 21 nM; in test [1] (setting [6]) it was 57 nM; in test [2], 540 nM; with HeLa (setting [5]) it was more than 10000 nM.

On to `C[S@@+]([O-])CCCc1cnc(-c2nn(Cc3c(F)cc(OCCO)cc3F)c3ccccc23)nc1Nc1ccncc1` [Example 2-4-3, 2-[3,5-difluoro-4-({3-[5-{3-[(R)-methylsulfinyl]propyl}-4-(pyridin-4-ylamino)pyrimidin-2-yl]-1H-indazol-1-yl}methyl)phenoxy]ethanol], for which the IC50 at Bub1 (setting [3]) was 1000 nM; in test [1] (setting [4]) it was 940 nM; in test [2], more than 10000 nM; in the test on HeLa (setting [5]), more than 10000 nM.

Turning to `COCc1cc(Nc2ccncc2C)nc(-c2nn(Cc3c(F)cc(OCCO)cc3F)c3ccccc23)n1` [Example 2-12-50, 2-{3,5-difluoro-4-[(3-{4-(methoxymethyl)-6-[(3-methylpyridin-4-yl)amino]pyrimidin-2-yl}-1H-indazol-1-yl)methyl]phenoxy}eth-anol], the IC50 was determined as 23 nM at Bub1 (setting [3]), 5.4 nM in test [1] (setting [4]), 1300 nM in test [2] and 970 nM in the test with HeLa (setting [5]).

As to `CCOc1cc(F)c(Cn2nc(-c3ncc(C4CCNCC4)c(Nc4ccncc4)n3)c3ccccc32)c(F)c1` [Example 2-9-3, 2-[1-(4-ethoxy-2,6-difluorobenzyl)-1H-indazol-3-yl]-5-(piperidin-4-yl)-N-(pyridin-4-yl)pyrimidin-4-amine, salt with hydrochloric acid], the IC50 was > 3000 nM and 4900 nM at Bub1 (setting [3]); 5.8 nM in test [1] (setting [4]); 240 nM in test [2]; 1100 nM in the test on HeLa (setting [7]).

As to `CCOc1cc(F)c(Cn2nc(-c3ncc(C4CCN(CC(F)(F)F)CC4)c(Nc4ccnc(C)n4)n3)c3ccccc32)c(F)c1` [Example 2-20-2, 2-[1-(4-ethoxy-2,6-difluorobenzyl)-1H-indazol-3-yl]-N-(2-methylpyrimidin-4-yl)-5-[1-(2,2,2-trifluoroethyl)piperidin-4-yl]pyrimidin-4-amine], the IC50 at Bub1 (setting [3]) was 9.1 nM; in test [1] (setting [4]), 51 nM; in test [2], 260 nM; in the test on HeLa (setting [5]), more than 10000 nM.

For `COc1cnccc1Nc1nc(-c2nn(Cc3c(F)cc(OCCO)cc3F)c3ccccc23)nc2c1CCC2` [Example 2-4-5, 2-{3,5-difluoro-4-[(3-{4-[(3-methoxypyridin-4-yl)amino]-6,7-dihydro-5H-cyclopenta[d]pyrimidin-2-yl}-1H-indazol-1-yl)methyl]phenoxy}ethanol], the IC50 on Bub1 (setting [3]) amounted to 3900 nM; in test [1] (setting [6]), 28 nM; in test [2], 180 nM; with HeLa (setting [5]), 2600 nM.

In the case of `Cc1nccc(Nc2nc(-c3nn(Cc4c(F)cc(OCCO)cc4F)c4ccccc34)ncc2C2CCN(CC(F)(F)F)CC2)n1` [Example 2-6-16, 2-{3,5-difluoro-4-[(3-{4-[(2-methylpyrimidin-4-yl)amino]-5-[1-(2,2,2-trifluoroethyl)piperidin-4-yl]pyrimidin-2-yl}-1H-indazol-1-yl)methyl]phenoxy}ethanol], the IC50 at Bub1 (setting [3]) is 0.56 nM; in test [1] (setting [4]), 550 nM; in test [2], 60 nM; in the test with HeLa (setting [5]) it was more than 10000 nM.

For `CCOc1cc(F)c(Cn2nc(-c3ncc(C4CCN(CCC(F)(F)F)CC4)c(Nc4ccncc4OC)n3)c3ccccc32)c(F)c1` [Example 2-22-1, 2-[1-(4-ethoxy-2,6-difluorobenzyl)-1H-indazol-3-yl]-N-(3-methoxypyridin-4-yl)-5-[1-(3,3,3-trifluoropropyl)piperidin-4-yl]pyrimidin-4-amine], the IC50 at Bub1 (setting [3]) is 72 nM; in test [1] (setting [4]), 35 nM; in test [2] it was 140 nM; in the test on HeLa (setting [5]) it was 3600 nM.

Take `CCOc1cc(F)c(Cn2nc(-c3nc4c(c(Nc5ccncc5C)n3)CCN(Cc3ccccc3)C4)c3ccccc32)c(F)c1` [Example 2-12-16, 7-benzyl-2-[1-(4-ethoxy-2,6-difluorobenzyl)-1H-indazol-3-yl]-N-(3-methylpyridin-4-yl)-5,6,7,8-tetrahydropyrido[3,4-d]pyrimidin-4-amine]: the IC50 at Bub1 (setting [3]) came to 57 nM; in test [1] (setting [4]), 290 nM; in test [2], 130 nM; in the test on HeLa (setting [5]), 1000 nM.

As to `CCOc1cc(F)c(Cn2nc(-c3nc(CN4CCOCC4)cc(Nc4ccncc4OC)n3)c3ccccc32)c(F)c1` [Example 2-19-13, 2-[1-(4-ethoxy-2,6-difluorobenzyl)-1H-indazol-3-yl]-N-(3-methoxypyridin-4-yl)-6-(morpholin-4-ylmethyl)pyrimidin-4-amine], the IC50 is 3800 nM on Bub1 (setting [3]), 7.7 nM in test [1] (setting [6]), 130 nM in test [2] and 3400 nM in the test with HeLa (setting [5]).

Consider “2-{3,5-difluoro-4-[(3-{5-[2-(methylsulfonyl)ethyl]-4-(eparate-4-ylamino)pyrimidin-2-yl}-1H-indazol-1-yl)methyl]phenoxy}ethanol [Example 2-4-1]”, for which the IC50 at Bub1 (co-treatment with Nocodazole 1 μg/ml, read-out: Biological Assay 4.1: H2A Formation IC50) is 96 nM; in test [1] (setting [6]) it was 12 nM; in test [2], 3600 nM; with HeLa (setting [7]), more than 10000 nM.

For the molecule `CCOc1cc(F)c(Cn2nc(-c3nc(COC)cc(Nc4ccnc(NC(C)=O)c4)n3)c3ccccc32)c(F)c1` [Example 2-12-20, N-[4-({2-[1-(4-ethoxy-2,6-difluorobenzyl)-1H-indazol-3-yl]-6-(methoxymethyl)pyr-imidin-4-yl}amino)pyridin-2-yl]acetamide], the IC50 on Bub1 (setting [3]) is 2.9 nM; in test [1] (setting [4]) it was 5.3 nM; in test [2], 330 nM; in the test with HeLa (setting [5]) it was 2800 nM.
